# Assay results: PMC10597491 (PLOS ONE, 2023)
# Bridge positions count the residues as written; N and C are the ends. Ends that are not written are not given here.
# Experiments:
# [1] = test system: human PBMCs; experiment: Proliferation and expansion of PBMC subpopulations in culture; format: cell-based
# Excerpt: An essential feature of IL-7-mediated homeostatic lymphoid maintenance is the proliferation of naive T-cells, expanding both recent thymic emigrants and circulating TN clones to sustain the population and preserve a diverse TCR repertoire in the naive T-cell compartment. […] In the CD8+ population, Ki-67+ frequency reached a peak by day 7, declining slightly by day 16. […] The high Ki-67 background in untreated samples of Treg and NK cells may indicate a high basal turnover rate of these cell types in culture.
# Data are shown as mean ± SEM. Flow cytometry gating data shown in S2 Fig.
# On days 3, 7, 16, and 30, cell aliquots were taken and analyzed by flow cytometry of CD8+ T naïve and memory populations. (A) Schematic of the putative differentiation pathway of the memory T cell compartment. (B) differential gating of naïve and early memory (Tscm) subpopulations. (C) Cell counts of treated and untreated memory subpopulations over time. (D) Stacked bar representation of changes in total memory T cell subpopulations over time. […] Data are shown as mean ± SEM. Detailed gating information is provided in S4 Fig.
# Frozen human PBMCs from 5 healthy donors (Stemcell Technologies, Cat# 70025.2, Lot numbers 2108409012, 2109407009, 210680104C, 210680801C, 211280501C, 220781802C) were thawed and rested overnight at 37°C, 5% CO2 in CTS™ OpTmizer™ T-Cell Expansion SFM (ThermoFisher Scientific Cat# A1048501). […] At indicated time points, cell aliquots were taken, and cell surface staining was performed using antibodies shown in S3 Table followed by viability dye staining. For Ki-67 and FoxP3 staining, surfaced stained cells were fixed and permeabilized according to the manufacturer’s instructions and analyzed immediately using the Novocyte Advanteon instrument (Agilent). The data were analyzed using FlowJo software. Fluorescence Minus One (FMO) controls were used to draw gates. Percentages of Ki-67+ cell populations were expressed as average ± SEM. Memory T-cells are as follows: Tn (CD45RA+CCR7+CD28+CD95-), Tscm (CD45RA+CCR7+CD28+CD95+), Tem (CD45RA-CCR7-), Tcm (CD45RA-CCR7+), and Temra (CD45RA+CCR7-). To count cells per well, at each assay time point 50 μL of the cells were taken from each well and incubated with 200 μL of the viability dye solution. The NovoCyte Advanteon flow cytometer was set to analyze precisely 50 μL ([…] original culture volume), which allowed the calculation of the absolute live cell counts. Because the culture volumes change over time due to splitting and removal, dilution factors were considered when calculating the total number of cells.
# [2] = molecular target: T1, human γc ECD (Homo sapiens, UniProt P31785); experiment: Competition binding ELISA, human γc ECD; conditions: immobilized Fc-γc ECD; tracer biotinylated MDK1188 pre-complexed with Neutravidin-HRP; 4°C
# T1 construct: human IL-2Rα(aa 23–254)-Fc, Acro Cat# ILG-H5256; purchased Acro ILG-H5256
# T1 sequence (P31785 23-254): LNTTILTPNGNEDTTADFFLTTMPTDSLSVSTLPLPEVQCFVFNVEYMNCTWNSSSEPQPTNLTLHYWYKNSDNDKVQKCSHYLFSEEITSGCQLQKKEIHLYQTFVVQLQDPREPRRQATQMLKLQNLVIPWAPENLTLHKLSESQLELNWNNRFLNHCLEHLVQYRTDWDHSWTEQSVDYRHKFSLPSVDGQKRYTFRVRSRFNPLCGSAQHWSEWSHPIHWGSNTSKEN
# Excerpt: (§1) (A, B) Determination of IC50 values in a competition ELISA for compound binding to human and cyno IL-7Rα and γc. The assay format is IL-7Rα-(His)6-tagged ECD or Fc-γc ECD immobilized on 96-well plates. Tracers are C-terminal biotinylated forms of the reference IL-7Rα and γc peptide ligands, each pre-complexed with Neutravidin-HRP (NA-HRP). (C, D) Label-free measurement of the equilibrium dissociation constant (KD) for peptide binding to IL-7Rα and γc extracellular domains with peptides was performed by biolayer interferometry as detailed in methods. Red lines depict 1:1 binding fit from Gator™ software. Blue lines represent individual BLI sensogram data taken every 0.1 seconds.
# (§2) Binding was determined using a competition binding ELISA. Microtiter plates (Immulon 4HBX flat bottom 96-well) were coated with 50 μL of […] human ECDs: IL-7Rα(aa 21–236)-His6, Sino Biological Cat# 10975-H08H; cynomolgus IL-7Rα(aa 21–235)-His6, Sino Biological Cat# 90332-C08H; human IL-2Rα(aa 23–254)-Fc, Acro Cat# ILG-H5256; cynomolgus IL-2Rα(aa 23–254)-Fc, made in-house, in PBS overnight at 4°C. […] Plates were washed with cold wash buffer, and bound tracer was detected using TMB One Component HRP substrate and Stop Solution (Surmodics Cat# TMBW-1000-01 and LSTP-0100-01). Absorbance at 450 nm was read using Agilent BioTek Synergy HTX Multimode Reader.
# [3] = molecular target: T2, human IL-7Rα ECD (Homo sapiens, UniProt P16871); experiment: Competition binding ELISA, human IL-7Rα ECD; conditions: immobilized IL-7Rα-(His)6 ECD; tracer biotinylated MDK1248 pre-complexed with Neutravidin-HRP; 4°C; valency-sensitive format
# T2 construct: IL-7Rα(aa 21–236)-His6, Sino Biological Cat# 10975-H08H; His6 (C); purchased Sino Biological 10975-H08H
# T2 sequence (P16871 21-236): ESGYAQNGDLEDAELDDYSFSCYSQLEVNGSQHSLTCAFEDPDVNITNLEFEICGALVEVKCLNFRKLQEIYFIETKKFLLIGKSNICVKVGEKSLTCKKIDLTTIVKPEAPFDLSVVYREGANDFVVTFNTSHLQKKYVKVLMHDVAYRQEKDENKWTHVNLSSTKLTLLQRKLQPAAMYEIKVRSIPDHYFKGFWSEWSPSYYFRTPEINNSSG
# Excerpt: as §1, §2
Substance,CD4+ and CD8+ maximal counts over day 1 baseline ([1]; between days 7 and 16),"CD8+ Tscm cell number increase ([1]; day 30, 100 nM MDK-703 or 1 nM IL-7, untreated 5-fold)","CD8+ T-cell number, increase over baseline ([1]; day 30 in culture, 100 nM MDK-703 or 1 nM IL-7, 5 donors)",CD8+ Temra expansion ([1]; over 30 days),IC50 [2],IC50 [3]
IL-7: human IL-7 cytokine (Peprotech),5 fold,1300 fold,5.2 fold,7 fold,–,–
"Ac-GWGIPWCTLDPGSLQCAWLGKHGGGGSGGVVCQDWEGVELCWQGG (disulfide 7-16, 32-41) [MDK1472]",–,–,–,–,57 nM,340 nM
